We go through 2 compounds from EP1195162A1 (priority 1999, dated 2000).

Like-named read-outs stand apart in the source and are kept apart here.

For series [1], the system named is anti-influenza virus IgA antibody. The class given is in vivo, BALB/c mice. The note with it: 50 µg/kg oral for 5 days, serum after 2 weeks, versus vaccine with aqueous solvent (only a low level), Figure 3.
Series [2] has the same test system. The experiment in a line: […]; nasal irrigation liquid IgA by ELISA. The class given is in vivo, BALB/c mice. To be noted: secondary response, 50 µg/kg oral over 1-5 days, versus no adjuvant (only a low level), Figure 4. For orientation: An ELISA detects its analyte on a solid surface through an enzyme-linked reagent.
Series [3] has as its system antibodies (IgG and IgA) specific to the adjuvant and IgE. The experiment in a line: Detection of antibodies specific to the adjuvant and IgE in nasal irrigation liquid (ELISA). To be noted: plate coated with fatty acid-BSA complex, absorbance versus control mice without administration. The series is classed as in vivo. On the procedure: Subsequently, detection was carried out for the presence of antibodies (IgG and IgA) specific to the adjuvant and IgE. A linked complex between the hydroxy unsaturated-fatty acid and bovine serum albumin as a carrier protein was prepared. Each well of the 96-well EIA plate was first coated with a 100 µl aliquot of solution containing the complex (1 µg/ml). Subsequently, each well of the plate was coated with 300 µl aliquot of a blocking solution (PBS containing 5% skimmed milk) for 1 hour to avoid non-specific reactions. Then, 100 µl samples (nasal irrigation liquid) diluted to various concentrations were added into the respective wells for antigen-antibody reaction and the reaction was continued for 1 hour. The plate was then washed 3 times with PBS-0.05% Tween-20, and then 100 µl of peroxidase-conjugated anti-mouse IgG, IgA or IgE antibody (1:1000) as a secondary antibody was added thereto and the reaction was continued for one hour. After the plate was washed 3 times with PBS-Tween-20, 100 µl of a substrate solution (0.1 M citrate buffer (pH 4) containing 0.003% hydrogen peroxide and ABTS of 0.3 mg/ml) was added thereto. The plate was incubated for 15 minutes for color development. The color (O.D. at 405 nm) was assayed in a micro-plate reader.

The subject of series [4] is pertussis toxin (PT). More on the design: species or system mice. To be noted: mouse, in vivo.
For series [5], the system named is diphtheria toxoid (DT). More on the design: species or system mice. The note with it: mouse, in vivo.
Series [6] concerns tetanus toxoid (TT). More on the design: species or system mice. The note with it: mouse, in vivo.
The test system of series [7] is measles. In words: Measles-rubella vaccine with oral adjuvant; antibody production in the blood, measles. The series is classed as in vivo, mice. The note with it: vaccine twice at 3-week intervals, adjuvant oral at first inoculation only, vaccine alone: 0.14. The method, then:
(§1) A measles-rubella vaccine preparation was prepared to contain virus particles of each vaccine of which amount corresponded to 7 µg in 20 µL of the preparation. 9,12,13-Trihydroxy-10E-octadecenoic acid dissolved in PBS and sterilized by filter was prepared at a concentration of 2.5 µg in 0.5 mL. A stabilizer (0.2% porcine gelatin, 0.1% sodium glutamate, 5% lactose) was added to these preparations. The resulting mixtures were dispensed into containers, which were used as measles-rubella vaccine combined vaccine-hydroxy unsaturated fatty acid nasal drop or oral preparations. Such preparations were stored at a temperature of not more than 10°C in a cool and dark place.
(§2) The measles-rubella vaccine as prepared above was administered into mice twice at 3-week intervals, and then 9,12,13-trihydroxy-10E-octadecenoic acid was orally administered only at or around the time of the first inoculation. Then, the antibody production in the blood was evaluated.

Series [8] deals with rubella. In words: Measles-rubella vaccine with oral adjuvant; antibody production in the blood, rubella. The class given is in vivo, mice. The note with it: vaccine twice at 3-week intervals, adjuvant oral at first inoculation only, vaccine alone: 0.09. The method, then: as §1, §2
Series [9] deals with Mycoplasma. The series is classed as in vivo, mice. The note with it: vaccine intranasal 3 times at 2-week intervals, adjuvant oral at first inoculation only.
Series [10] concerns anti-influenza virus IgG antibody. The class given is in vivo, BALB/c mice. The note with it: secondary response.
Series [11] relates to anti-influenza virus IgA antibody. The series is classed as in vivo, BALB/c mice.
Series [12] has as its system rotavirus vaccine. In words: Rotavirus vaccine with oral adjuvant; antibody production in the blood. The class given is in vivo, mice. To be noted: adjuvant oral at first inoculation only. On the procedure: A rotavirus vaccine preparation was prepared to contain virus particles of which amount corresponded to 3.3 µg in 20 µL. The methyl ester derivative (2) (methyl 9,12,13-trihydroxy-10E-octadecenoate) as used in Example 5 was dissolved in PBS and prepared at a concentration of 10 µg in 0.5 mL. The resulting preparation was sterilized by filter and dispensed into containers, which were used as rotavirus vaccine-hydroxy unsaturated fatty acid oral preparations or nasal drops. Such preparations were stored at a temperature of not more than 10°C in a cool and dark place.
The rotavirus vaccine as prepared above was administered into mice twice at 3-week intervals, and then the methyl ester derivative was orally administered only at or around the time of the first inoculation. Then, the antibody production in the blood was evaluated.

Regarding `CCCCCC(O)C(O)/C=C/C(O)CCCCCCCC(=O)O` (stereo not drawn) [9,12,13-trihydroxy-10E-octadecenoic acid], the “titer of anti-influenza virus IgA antibody in the serum” value in [1] is “highly elevated”. For the same compound, the “titer of anti-influenza virus IgA antibody in the nasal irrigation liquids” value in series [2] is given as “highly elevated”. Besides, the “antibodies (IgG, IgA) specific to the adjuvant and IgE” value in series [3] is listed as “neither antibody (IgG, IgA) specific to the adjuvant nor IgE was detectable”. In series [4], the “level of anti-PT-IgA antibody” value was 14 ELISA units and the “level of anti-PT-IgG antibody” value was 442 ELISA units. Moreover, in [5], the “level of anti-DT-IgA antibody” value amounted to 11 ELISA units and the “level of anti-DT-IgG antibody” value worked out at 70 ELISA units. Further, in series [6], the “level of anti-TT-IgA antibody” value came to 11 ELISA units and the “level of anti-TT-IgG antibody” value is 75 ELISA units. Besides, in series [7], the “ELISA titer of antibody produced for measles” value came to 0.30. In [8], the “ELISA titer of antibody produced for rubella” value was found to be 0.29. Besides, the “average number of lesions” value in [9] (vaccine alone: 302) is on record as 178. In addition, the “mice in which lesions associated with Mycoplasma infection were found” value in [9] (vaccine alone: all of 10) is recorded as 3 of 10. Besides, the “titer of anti-influenza virus IgG antibody in the serum” value in series [10] (compared with HA vaccine singly used, Figure 5) was “increased”. Moreover, the “titer of anti-influenza virus IgG antibody in the lung irrigation liquid” value in series [10] (vaccine alone: only a low level, Figure 6) was “significantly elevated”. In addition, in series [11] (mouse, in vivo), the “adjuvant activity compared with the same dose of CTB (positive control), nasal irrigation liquid IgA” value is reported as “comparable” and the “adjuvant activity compared with the same dose of CTB (positive control), serum IgA” value was “comparable”. Further, in series [11] (secondary response, adjuvant 1 µg per mouse oral, vaccine subcutaneous, compared with HA vaccine singly used, Figure 7), the “titer of anti-influenza virus IgA antibody in the serum” value is on record as “significantly increased”. In addition, the “titer of anti-influenza virus IgA antibody in the nasal irrigation liquid” value in series [11] (secondary response, adjuvant 1 µg per mouse oral, vaccine subcutaneous, vaccine alone: only a low level, Figure 8) was “significantly elevated”.

In the case of `CCCCCC(O)C(O)/C=C/C(O)CCCCCCCC(=O)OC` (stereo not drawn) [methyl ester derivative, methyl 9,12,13-trihydroxy-10E-octadecenoate], the “ELISA titer of antibody produced” value was determined as 0.38 in series [12] (inoculation of nasal vaccine drop twice at 3-week intervals, vaccine alone: 0.089) and 0.27 in [12] (vaccine inoculated orally twice at 3-week intervals, control without adjuvant: 0.018).
